Reference: patent US11384097B2, “Tetrahydroisoquinoline derivative, preparation method therefor and use thereof” (ZHEJIANG HISUN PHARMACEUTICAL CO., LTD., priority 2018, dated 2022)
Like-named read-outs stand apart in the source and are kept apart here.

Tests used:
[1] = Pharmacokinetic study in SD rats (intravenous injection and intragastric administration); type: in vivo, Sprague Dawley (SD) rats; details: for bioavailability / half-life / AUC(0-inf) / Cmax / MRT: male, Sprague-Dawley, rat, plasma; for bioavailability: Oral (10 mg/kg) vs Injection (1 mg/kg), read-out: Bioavailability F(%); for half-life: read-out: Half-life T1/2 (converted); for AUC(0-inf): read-out: area under curve AUC0-∞; for Cmax: read-out: blood concentration Cmax; for MRT: read-out: residence time MRT
Protocol: Test Example 3. Oral Pharmacokinetic Studies of the Compounds of the Present Disclosure in SD Rats
SD rats were used as the experimental animal. The rats were intravenously injected or intragastrically administered with the compounds of the present disclosure, and the drug concentrations in plasma at different times were tested by LC/MS/MS methods, so as to research the pharmacokinetic characteristics of compounds of present disclosure in rats.
Forty-eight healthy adult Sprague Dawley (SD) male rats were purchased from Weitong Lihua Laboratory Animal Technology Co., Ltd., production license number: 11400700271077.
48 healthy adult male SD rats were fasted overnight and administered via tail vein injection (at a dosage of 1 mg/kg) and intragastrically administered (at a dosage of 10 mg/kg), respectively. The rats were fed 4 h after the administration.
About 0.2 mL of blood was collected from the jugular vein before administering and at 0.083 hours, 0.25 hours, 0.5 hours, 1 hour, 2 hours, 4 hours, 8 hours, 12 hours, and 24 hours after administering, and heparin sodium was used for anticoagulation. Blood samples were collected and placed on ice, and plasma was separated by centrifugation (centrifugation conditions: 1500 g, 10 min). The collected plasma was stored at −40° C.-20° C. before analysis.
10 μL of plasma sample was taken and 400 μL of acetonitrile (containing internal standard working solution, comprising 5 ng/mL verapamil and 50 ng/mL glibenclamide) was added. The resulting mixture was vortexed for 10 minutes, and centrifuged at 3700 rpm for 10 minutes. 70 μL of the supernatant was taken, and […] of water was added. The resulting mixture was vortexed for 10 minutes, and 2 μL of the mixture was transferred to the LC-MS/MS for sample analysis.

[2] = Metabolic stability in rat liver microsomes; type: in vitro ADME; details: for half-life at 1 µM: rat liver microsomes 0.5 mg/mL, 1 μM compound, NADPH 1 mM, read-out: Half-life/(T1/2, min)
Protocol: Test Example 2. Study on the Metabolic Stability of the Compound of the Present Disclosure in Rat Liver Microsomes
The purpose of this experiment is to study the metabolic stability of the compounds of the present disclosure in rat liver microsomes.
The compounds were incubated with rat liver microsomes and coenzyme NADPH was added to initiate the reaction. At 0, 5, 15, 30 and 60 minutes, 20 μL of incubation solution was taken out and transferred to 200 μL of acetonitrile containing internal standard to stop the reaction. After protein precipitation, the resulting mixture was centrifuged at 3,700 rpm for 10 minutes, and the supernatant was taken. The supernatant was diluted 1:1 with water and analyzed by LC-MS/MS method. According to the elimination half-life of the test compound in the incubation system, the in vitro intrinsic clearance rate was calculated. Midazolam was used as the internal reference compound and all incubations were performed in duplicate in parallel.
The peak area ratio analyte/internal standard (Aanalyte/AIS) is obtained by the instrument, and the remaining percentage (% Control) is calculated from the ratio Aanalyte/AIS in the non-zero time point sample to the zero time point sample. Ln (% Control) against incubation time is plotted and a linear fit was performed.

[3] = molecular target: T1, Human AT2R (Homo sapiens, UniProt P50052); experiment: Antagonistic activity assay on human AT2R ligand binding (Tag-lite HTRF, Tb-labeled-AT2R cells); details: AT2 ligand binding, red agonist fluorescent ligand
T1 construct: Terbium (Tb) donor label on the receptor; From my own knowledge, the Tag-lite format usually uses an N-terminal SNAP-tag fusion labelled with Lumi4-Tb; expressed in transfected cells
T1 sequence (P50052 1-363): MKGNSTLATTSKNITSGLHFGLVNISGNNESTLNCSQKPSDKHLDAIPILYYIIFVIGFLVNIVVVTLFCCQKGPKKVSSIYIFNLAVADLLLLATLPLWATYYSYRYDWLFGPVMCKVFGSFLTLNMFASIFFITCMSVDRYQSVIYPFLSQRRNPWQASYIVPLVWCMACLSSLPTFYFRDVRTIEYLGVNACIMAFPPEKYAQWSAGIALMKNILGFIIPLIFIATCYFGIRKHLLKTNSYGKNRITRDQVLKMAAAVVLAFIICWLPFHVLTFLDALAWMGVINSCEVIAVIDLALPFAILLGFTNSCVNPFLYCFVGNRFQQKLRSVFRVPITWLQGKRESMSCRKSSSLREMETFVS
Protocol: Antagonistic Activity Assay of the Compound of the Present Disclosure on Human AT2R Ligand Binding
According to standard methods, all compounds were dissolved in dimethyl sulfoxide and prepared as 10 mM stock solutions.
(3) Each of the diluted compound in step (2) was transferred to a working plate (3657, Corning) at 160 nL/well, at 200 g, at room temperature for 1 minute;
(4) 40 μl 1×TLB was added to the above working plate, and it was centrifuged at 200 g (centrifugal force) at room temperature for 1 minute, shook on a shaker for 15 minutes to mix well, and centrifuged at 200 g (working concentration of the compound was 4×) at room temperature for 1 minute for later use;
(6) 5 mL 1×TLB was taken in a 15 mL centrifuge tube;
(7) a Tb-labeled-AT2R cells were frozen and thawed in a 37° C. water bath until the ice was completely melted (1-2 minutes);
(8) The frozen and thawed cells were rapidly transferred to the 1×TLB in step (6), and the resulting solution was mixed gently, and then centrifuged at 1200 g at room temperature for 5 minutes;
After being mixed well, the resulting mixture was placed at room temperature for late use;
(11) The reaction plate was centrifuged at 200 g at room temperature for 1 minute, and stood for 1 hour at room temperature of 25° C., and then it was centrifuged at 200 g at room temperature for 1 minute. The data was collected using Envision HTRF microplate reader, and IC50 was calculated using a nonlinear fitting formula.

[4] = iv, Injection (1 mg/kg), tail vein

COc1ccc2c(c1OCc1ccccc1)CC(C(=O)NS(=O)(=O)N(C)C)N(c1nc3ccccc3o1)C2 (stereo not drawn) [Example 9, 2-(Benzo[d]oxazol-2-yl)-5-(benzyloxy)-N—(N,N-dimethylsulfonyl)-6-methoxy-1,2,3,4-tetrahydroisoquinoline-3-carboxamide]
bioavailability [1]: 71.1%
half-life ([1]; Oral (10 mg/kg)): 2.1 ± 1.6 h
AUC(0-inf) ([1]; Oral (10 mg/kg)): 18100 ± 5400 ng·h/mL
Cmax ([1]; Oral (10 mg/kg)): 9470 ± 5890 ng/mL
MRT ([1]; Oral (10 mg/kg)): 2.2 ± 0.8 h
half-life [1, 4]: 1.3 ± 0.1 h
AUC(0-inf) [1, 4]: 2550 ± 720 ng·h/mL
MRT [1, 4]: 1.3 ± 0.2 h

COc1ccc2c(c1OCc1ccccc1)C[C@@H](C(=O)O)N(c1nc3ccc(F)cc3o1)C2 [Example 14, (S)-5-(Benzyloxy)-2-(6-fluorobenzo[d]oxazol-2-yl)-6-methoxy-1,2,3,4-tetrahydroisoquinoline-3-carboxylic acid]
half-life at 1 µM [2]: 233 min
half-life ([1]; Oral (10 mg/kg)): 3.6 ± 0.2 h
AUC(0-inf) ([1]; Oral (10 mg/kg)): 29600 ± 4670 ng·h/mL
MRT ([1]; Oral (10 mg/kg)): 5.3 ± 0.4 h
AUC(0-inf) [1, 4]: 8230 ± 1090 ng·h/mL
MRT [1, 4]: 1.9 ± 0.4 h

COc1ccc2c(c1OCc1ccccc1)C[C@@H](C(=O)O)N(c1nc3ccc(C#N)cc3o1)C2 [Example 15, (S)-5-(Benzyloxy)-2-(6-cyanobenzo[d]oxazol-2-yl)-6-methoxy-1,2,3,4-tetrahydroisoquinoline-3-carboxylic acid]
IC50 [3]: 36 nM
half-life at 1 µM [2]: 317 min
Half-life T1/2 ([1]; Injection (1 mg/kg), tail vein): 4.2 ± 1.2 h
bioavailability [1]: 47.3%
half-life ([1]; Oral (10 mg/kg)): 4.7 ± 1.3 h
AUC(0-inf) ([1]; Oral (10 mg/kg)): 45400 ± 11900 ng·h/mL
MRT ([1]; Oral (10 mg/kg)): 6.3 ± 1.1 h
AUC(0-inf) [1, 4]: 9590 ± 579 ng·h/mL
MRT [1, 4]: 2 ± 0.6 h

COc1ccc2c(c1OCc1ccccc1)C[C@@H](C(=O)O)N(c1nc3ccc(Cl)cc3o1)C2 [Example 16, (S)-5-(benzyloxy)-2-(6-chlorobenzo[d]oxazol-2-yl)-6-methoxy-1,2,3,4-tetrahydroisoquinoline-3-carboxylic acid]
IC50 [3]: 36 nM

CCS(=O)(=O)NC(=O)[C@@H]1Cc2c(ccc(OC)c2COc2ccccc2)CN1c1nc2ccc(F)cc2o1 [Example 19, (S)—N-(ethylsulfonyl)-2-(6-fluorobenzo[d]oxazol-2-yl)-6-methoxy-5-(phenoxymethyl)-1,2,3,4-tetrahydroisoquinoline-3-carboxamide]
IC50 [3]: 25 nM
half-life at 1 µM [2]: 175 min

COc1ccc2c(c1COc1ccccc1)C[C@@H](C(=O)NS(=O)(=O)N(C)C)N(c1nc3ccc(F)cc3o1)C2 [Example 20, (S)—N—(N,N-dimethylaminosulfonyl)-2-(6-fluorobenzo[d]oxazol-2-yl)-6-methoxy-5-(phenoxymethyl)-1,2,3,4-tetrahydroisoquinoline-3-carboxamide]
IC50 [3]: 26 nM

COc1ccc2c(c1COc1ccccc1)C[C@@H](C(=O)NS(=O)(=O)C1CC1)N(c1nc3ccc(F)cc3o1)C2 [Example 21, (S)—N-(cyclopropylsulfonyl)-2-(6-fluorobenzo[d]oxazol-2-yl)-6-methoxy-5-(phenoxymethyl)-1,2,3,4-tetrahydroisoquinoline-3-carboxamide]
IC50 [3]: 36 nM

COc1ccc2c(c1OCc1ccccc1)C[C@@H](C(=O)O)N(c1nc3ccncc3o1)C2 [Example 22, (S)-5-(benzyloxy)-6-methoxy-2-(oxazolo[5,4-c]pyridin-2-yl)-1,2,3,4-tetrahydroisoquinoline-3-carboxylic acid]
remaining original drug after incubation in rat liver microsomes ([2]; rat liver microsomes, 60 minutes): ~100%
bioavailability [1]: 44.6%
half-life ([1]; Oral (10 mg/kg)): 3.9 ± 0.8 h
AUC(0-inf) ([1]; Oral (10 mg/kg)): 35700 ± 6090 ng·h/mL
Cmax ([1]; Oral (10 mg/kg)): 15900 ± 11000 ng/mL
MRT ([1]; Oral (10 mg/kg)): 3.7 ± 0.8 h
half-life [1, 4]: 2 ± 0.6 h
AUC(0-inf) [1, 4]: 8020 ± 635 ng·h/mL
MRT [1, 4]: 1.2 ± 0.3 h

COc1ccc2c(c1OCc1ccccc1)C[C@@H](C(=O)NS(C)(=O)=O)N(c1nc3ccc(F)cc3o1)C2 [Example 26, (S)-5-(Benzyloxy)-2-(6-fluorobenzo[d]oxazol-2-yl)-6-methoxy-N-(methylsulfonyl)-1,2,3,4-tetrahydroisoquinoline-3-carboxamide]
IC50 [3]: 37 nM

COc1ccc2c(c1OCc1ccc(F)cc1)C[C@@H](C(=O)O)N(c1nc3ccc(F)cc3o1)C2 [Example 29, (S)-2-(6-fluorobenzo[d]oxazol-2-yl)-5-((4-fluorobenzyl)oxy)-6-methoxy-1,2,3,4-tetrahydroisoquinoline-3-carboxylic acid]
half-life at 1 µM [2]: 164 min

COc1ccc2c(c1OCc1ccc(C(F)(F)F)cc1)C[C@@H](C(=O)O)N(c1nc3ccc(F)cc3o1)C2 [Example 38, (S)-2-(6-fluorobenzo[d]oxazol-2-yl)-6-methoxy-5-((4-(trifluoromethyl)benzyl)oxy)-1,2,3,4-tetrahydroisoquinoline-3-carboxylic acid]
IC50 [3]: 11 nM

COc1ccc(COc2c(OC)ccc3c2C[C@@H](C(=O)O)N(c2nc4ccc(F)cc4o2)C3)cn1 [Example 39, (S)-2-(6-fluorobenzo[d]oxazol-2-yl)-6-methoxy-5-((6-methoxypyridin-3-yl)methoxy)-1,2,3,4-tetrahydroisoquinoline-3-carboxylic acid]
half-life at 1 µM [2]: 845 min
Half-life T1/2 ([1]; Injection (1 mg/kg), tail vein): 2.3 ± 0.4 h
bioavailability [1]: 45.3%
half-life ([1]; Oral (10 mg/kg)): 3.6 ± 0.3 h
AUC(0-inf) ([1]; Oral (10 mg/kg)): 15300 ± 2260 ng·h/mL
MRT ([1]; Oral (10 mg/kg)): 4.3 ± 0.6 h
AUC(0-inf) [1, 4]: 3380 ± 405 ng·h/mL
MRT [1, 4]: 1.9 ± 0.3 h

COc1ccc(COc2c(OC)ccc3c2C[C@@H](C(=O)O)N(c2nc4ccc(C#N)cc4o2)C3)cc1 [Example 42, (S)-2-(6-cyanobenzo[d]oxazol-2-yl)-6-methoxy-5-((4-methoxybenzyl)oxy)-1,2,3,4-tetrahydroisoquinoline-3-carboxylic acid]
IC50 [3]: 6 nM
half-life at 1 µM [2]: 451 min

COc1ccc(COc2c(OC)ccc3c2C[C@@H](C(=O)O)N(c2nc4ccc(C#N)cc4o2)C3)cn1 [Example 43, (S)-2-(6-cyanobenzo[d]oxazol-2-yl)-6-methoxy-5-((6-methoxypyridin-3-yl)methoxy)-1,2,3,4-tetrahydroisoquinoline-3-carboxylic acid]
IC50 [3]: 33 nM

COc1ccc(COc2c(OC)ccc3c2C[C@@H](C(=O)O)N(c2nc4ccc(C#N)cc4o2)C3)nc1 [Example 44, (S)-2-(6-cyanobenzo[d]oxazol-2-yl)-6-methoxy-5-((5-methoxypyridin-2-yl)methoxy)-1,2,3,4-tetrahydroisoquinoline-3-carboxylic acid]
IC50 [3]: 33 nM

CCS(=O)(=O)NC(=O)[C@@H]1Cc2c(ccc(OC)c2OCc2ccc(OC)cc2)CN1c1nc2ccc(F)cc2o1 [Example 45, (S)—N-(ethylsulfonyl)-2-(6-fluorobenzo[d]oxazol-2-yl)-6-methoxy-5-((4-methoxybenzyl)oxy)-1,2,3,4-tetrahydroisoquinoline-3-carboxamide]
IC50 [3]: 6 nM

COc1ccc(COc2c(OC)ccc3c2C[C@@H](C(=O)NS(=O)(=O)N(C)C)N(c2nc4ccc(F)cc4o2)C3)cc1 [Example 46]
IC50 [3]: 5 nM

COc1ccc2c(c1OCc1ccccc1)C[C@@H](C(=O)O)N(C(=O)C(c1ccccc1)c1ccccc1)C2 [olodanrigan, reference compound]
half-life at 1 µM [2]: 96.3 min
bioavailability [1]: 12.1%
half-life ([1]; Oral (10 mg/kg)): 1.5 ± 0.3 h
AUC(0-inf) ([1]; Oral (10 mg/kg)): 1480 ± 715 ng·h/mL
Cmax ([1]; Oral (10 mg/kg)): 470 ± 197 ng/mL
MRT ([1]; Oral (10 mg/kg)): 2.6 ± 1 h
half-life [1, 4]: 1.6 ± 0.3 h
AUC(0-inf) [1, 4]: 1230 ± 96 ng·h/mL
MRT [1, 4]: 0.92 ± 0.16 h
